Holding throughout (assay type): cell-based
One assay has as its target wild-type CB2 (Homo sapiens, UniProt P34972). The experiment in a line: Forskolin-stimulated cAMP accumulation. For orientation: Changes in cAMP serve as a functional read-out for many G protein-coupled receptors.
In a further assay the target is CB2 (Homo sapiens, UniProt P34972). Description: β-arrestin2 recruitment assay. Particulars: for Emax (fold): CB2 β-arrestin2; for EC50: EC50, CB2 β-arrestin2.
The next assay concerns the target CB1 (Homo sapiens, UniProt P21554). Description: β-arrestin2 recruitment assay at CB1. Particulars: for Emax (fold): CB1 β-arrestin2.
Another assay addresses CB2 G78L (Homo sapiens, UniProt P34972, G78L). Description: Receptor activity at CB2 stabilizing point mutant G78L.
Another assay has as its target CB2 T127A (Homo sapiens, UniProt P34972, T127A). The experiment in a line: Receptor activity at CB2 stabilizing point mutant T127A.
A further assay deals with CB2 T153L (Homo sapiens, UniProt P34972, T153L). The experiment in a line: Receptor activity at CB2 stabilizing point mutant T153L.
Another assay deals with CB2 R242E (Homo sapiens, UniProt P34972, R242E). The experiment in a line: Receptor activity at CB2 stabilizing point mutant R242E.
A further assay has as its target CB2 G304E (Homo sapiens, UniProt P34972, G304E). The experiment in a line: Receptor activity at CB2 stabilizing point mutant G304E.

CB2, sequence (P34972 whole entry): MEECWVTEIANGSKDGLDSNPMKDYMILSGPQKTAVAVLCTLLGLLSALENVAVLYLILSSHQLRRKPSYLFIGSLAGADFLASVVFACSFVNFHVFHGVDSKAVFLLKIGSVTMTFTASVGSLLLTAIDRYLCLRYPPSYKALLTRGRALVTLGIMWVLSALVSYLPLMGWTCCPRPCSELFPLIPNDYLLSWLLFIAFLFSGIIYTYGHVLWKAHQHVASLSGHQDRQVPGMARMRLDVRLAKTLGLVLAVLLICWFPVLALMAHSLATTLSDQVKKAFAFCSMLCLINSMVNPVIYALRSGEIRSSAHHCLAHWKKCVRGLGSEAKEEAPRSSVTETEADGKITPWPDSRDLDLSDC
wild-type CB2, sequence (P34972 whole entry): as above
CB1, sequence (P21554 whole entry): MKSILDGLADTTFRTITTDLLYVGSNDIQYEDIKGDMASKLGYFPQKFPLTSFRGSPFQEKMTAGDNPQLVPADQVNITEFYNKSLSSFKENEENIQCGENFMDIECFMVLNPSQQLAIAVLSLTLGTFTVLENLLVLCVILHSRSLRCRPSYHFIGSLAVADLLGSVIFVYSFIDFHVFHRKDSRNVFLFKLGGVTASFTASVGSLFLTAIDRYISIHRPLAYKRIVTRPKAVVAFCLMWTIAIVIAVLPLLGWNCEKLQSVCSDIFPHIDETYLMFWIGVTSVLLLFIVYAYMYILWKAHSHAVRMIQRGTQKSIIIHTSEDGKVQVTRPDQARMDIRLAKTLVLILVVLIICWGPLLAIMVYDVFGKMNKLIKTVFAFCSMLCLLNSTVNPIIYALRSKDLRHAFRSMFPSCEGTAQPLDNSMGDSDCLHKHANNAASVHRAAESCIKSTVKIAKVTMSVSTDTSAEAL
CB2 T153L, sequence (P34972 whole entry T153L): as the sequence (P34972 whole entry) above, with T153L counted along it
CB2 G78L, sequence (P34972 whole entry G78L): as the sequence (P34972 whole entry) above, with G78L counted along it
CB2 R242E, sequence (P34972 whole entry R242E): as the sequence (P34972 whole entry) above, with R242E counted along it
CB2 G304E, sequence (P34972 whole entry G304E): as the sequence (P34972 whole entry) above, with G304E counted along it
CB2 T127A, sequence (P34972 whole entry T127A): as the sequence (P34972 whole entry) above, with T127A counted along it

Usually IC50 stands for the concentration needed to halve the response being measured. For orientation: EC50 means the concentration needed to bring the measured effect to its halfway point. For the compound `Cc1c(C(=O)NC23CC4CC(CC(C4)C2)C3)nn(CCCCCO)c1-c1ccccc1` [AM10257, 1-(5-Hydroxypentyl)-4-methyl-5-phenyl-N-tricyclo[3.3.1.1^3,7]dec-1-yl-1H-pyrazole-3-carboxamide], the IC50 came out at 0.0359 ± 0.0032 µM at wild-type CB2; 0.0597 ± 0.0081 µM on CB2 G78L; 0.0401 ± 0.0045 µM on CB2 T127A; 0.0462 ± 0.0046 µM on CB2 T153L; 0.0467 ± 0.0113 µM against CB2 R242E; 0.0321 ± 0.0062 µM at CB2 G304E. Further, on wild-type CB2, the Kb was 0.00501 µM. The “Functional profile at CB2 (adenylyl cyclase assay)” value at wild-type CB2 (against CP55,940, Figure 1B) is recorded as “competitive antagonist/inverse agonist”. Further, the “Functional profile at CB2 (β-arrestin2 recruitment)” value on CB2 is “competitive antagonist/inverse agonist”. In addition, the “Emax (fold)” value at CB2 (Figure 1C) is 0.70 ± 0.05 fold; on CB1 (Figure 5C) it was 2.4 ± 0.1 fold. In addition, the EC50 at CB2 (Figure 1C) was found to be 0.00053 ± 0.00029 µM; at CB2 (Figure 6C), 0.0002 ± 4e-05 µM; at CB1, 0.0515 ± 0.0074 µM. Further, the “Functional profile at CB1 (β-arrestin2 recruitment)” value (“Functional profile at CB1” for short) on CB1 was “partial agonist”.

Turning to `CC(=O)OCCn1c(=NC(=O)C2C(C)(C)C2(C)C)sc2cc(C)ccc21` [MRI2687, 2-(6-methyl-2-((2,2,3,3-tetramethylcyclopropane-1-carbonyl)imino)benzo[d]thiazol-3(2H)-yl)ethyl acetate], on CB2, the “Functional profile at CB2 (β-arrestin2 recruitment)” value is reported as “inverse agonist”. Further, at CB2 (Figure 6C), the “Emax (fold)” value stood at 0.75 ± 0.04 fold and the EC50 is 0.00024 ± 6e-05 µM. On CB1, the EC50 came out at 0.114 ± 0.015 µM and the “Functional profile at CB1” value is listed as “partial agonist”. Besides, the “Emax (fold)” value on CB1 (Figure 6D) came to 6.0 ± 0.3 fold.

`CC(=O)OCCn1c(C)c(C)sc1=NC(=O)C1C(C)(C)C1(C)C` [MRI2594, 2-(4,5-dimethyl-2-((2,2,3,3-tetramethylcyclopropane-1-carbonyl)imino)thiazol-3(2H)-yl)ethyl acetate]: the “Functional profile at CB2 (β-arrestin2 recruitment)” value on CB2 was “agonist”. For the same compound, at CB2 (Figure 6C), the “Emax (fold)” value came to 2.0 ± 0.2 fold and the EC50 amounted to 0.00017 ± 3e-05 µM. Also, at CB1, the EC50 was 0.31 ± 0.054 µM and the “Functional profile at CB1” value is reported as “agonist”. For the same compound, the “Emax (fold)” value at CB1 (Figure 6D) was 28.0 ± 2.0 fold.
